Laboratory results as given in the supplement of paper PMC11061612.

Columns and labels:
Test in all cases: combination Emax (second highest fraction inhibited in the dose matrix, 72 h); higher = more inhibition; extreme values may be limits of the assay
[1] = system: C2BBe1 (Colorectal Carcinoma)
Method in brief: (§1)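 Cell lines in DMEM/F12 or RPMI with 10% FBS were plated in 1536-well plates, held 24 hours at 37°C, 5% CO2, then given two-drug dose matrices for 72 hours (DMSO typically 0.2%). Viability was read by CellTiter-Glo 2.0 luminescence and scaled as inhibition from 0 (vehicle wells) to 1 (blank wells). Combination Emax is the second-highest inhibition in the matrix; Bliss excess is observed combination effect minus expected EA + EB − EA·EB, EA and EB being single-agent effects.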

[2] = system: NTERA-2-cl-D1 (Other Solid Carcinomas)
Method in brief: as §1

SK-MEL-24 (Melanoma) = system: SK-MEL-24 (Melanoma)
Method in brief: as §1

[3] = system: MRK-nu-1 (Breast Carcinoma)
Method in brief: as §1

[4] = system: SBC-3 (Small Cell Lung Carcinoma)
Method in brief: as §1

[5] = system: RS4-11 (B-Lymphoblastic Leukemia)
Method in brief: as §1

[6] = system: SBC-5 (Small Cell Lung Carcinoma)
Method in brief: as §1

[7] = system: NCI-H835 (Other Solid Carcinomas)
Method in brief: as §1

[8] = system: OVKATE (Ovarian Carcinoma)
Method in brief: as §1

[9] = system: SW1463 (Colorectal Carcinoma)
Method in brief: as §1

MG-63 (Osteosarcoma) = system: MG-63 (Osteosarcoma)
Method in brief: as §1

[10] = system: SUP-HD1 (Hodgkin's Lymphoma)
Method in brief: as §1

[11] = system: NCI-H1435 (Non-Small Cell Lung Carcinoma)
Method in brief: as §1

[12] = system: CAL-85-1 (Breast Carcinoma)
Method in brief: as §1

[13] = system: JURL-MK1 (Chronic Myelogenous Leukemia)
Method in brief: as §1

NCI-H2452 (Mesothelioma) = system: NCI-H2452 (Mesothelioma)
Method in brief: as §1

[14] = system: BC-1 (B-Cell Non-Hodgkin's Lymphoma)
Method in brief: as §1

[15] = system: IGROV-1 (Ovarian Carcinoma)
Method in brief: as §1

[16] = system: HT-3 (Cervical Carcinoma)
Method in brief: as §1

[17] = system: COR-L105 (Lung Adenocarcinoma)
Method in brief: as §1

| SMILES | combination Emax [1] | combination Emax [2] | combination Emax (SK-MEL-24 (Melanoma)) | combination Emax [3] | combination Emax [4] | combination Emax [5] | combination Emax [6] | combination Emax [7] | combination Emax [8] | combination Emax [9] | combination Emax (MG-63 (Osteosarcoma)) | combination Emax [10] | combination Emax [11] | combination Emax [12] | combination Emax [13] | combination Emax (NCI-H2452 (Mesothelioma)) | combination Emax [14] | combination Emax [15] | combination Emax [16] | combination Emax [17] |
| --- | --- | --- | --- | --- | --- | --- | --- | --- | --- | --- | --- | --- | --- | --- | --- | --- | --- | --- | --- | --- |
| CS(=O)(=O)CCNCc1ccc(-c2ccc3ncnc(Nc4ccc(OCc5cccc(F)c5)c(Cl)c4)c3c2)o1 [Lapatinib] + C[C@@H](Oc1cc(-c2cnn(C3CCNCC3)c2)cnc1N)c1c(Cl)ccc(F)c1Cl [Crizotinib] (first compound max 10 µM, 7x7, partner max 10 µM) | 0.745 | 0.957 | 0.967 | 0.477 | 0.971 | 0.883 | 0.832 | 0.459 | 0.391 | 0.802 | 0.936 | 0.895 | 0.871 | 0.944 | 1 | 0.804 | 0.959 | 1 | 0.234 | 0.815 |
| COc1cccc(OCCCN)c1-c1cc(Nc2cnc(C#N)cn2)n[nH]1 [Prexasertib] + Cc1cc2ncnn2cc1Nc1ncc2c(n1)n(C1CCOCC1)c(=O)n2C [AZD7648] (first compound max 1 µM, 7x7, partner max 10 µM) | 0.625 | 0.345 | 0.61 | 0.803 | 0.755 | 1 | 0.901 | 0.36 | 0.294 | 0.704 | 0.921 | 0.89 | 0.336 | 0.477 | 1 | 0.714 | 0.991 | 0.76 | 0.388 | 0.444 |
| NC1(C(=O)N[C@@H](CCO)c2ccc(Cl)cc2)CCN(c2ncnc3[nH]ccc23)CC1 [Capivasertib] + COc1nnc2ccc(N3CCC(c4ccc(OCCN5CCN(C)C(=O)[C@H]5C)cc4)CC3)nn12 [AZD5153] (first compound max 10 µM, 7x7, partner max 1 µM) | 0.405 | 0.564 | 0.885 | 0.587 | 0.744 | 0.867 | 0.563 | 0.944 | 0.284 | 0.521 | 0.86 | 0.857 | 0.248 | 0.434 | 0.993 | 0.456 | 0.977 | 0.804 | 0.308 | 0.381 |
| CC(=O)c1c(C)c2cnc(Nc3ccc(N4CCNCC4)cn3)nc2n(C2CCCC2)c1=O [Palbociclib] + Cc1c2c(nn1C)CSCc1cc(n(C)n1)CSc1cc(c3ccccc3c1)OCCCc1c(C(=O)O)n(C)c3c-2c(Cl)ccc13 [AZD5991] (first compound max 10 µM, 7x7, partner max 1 µM) | 0.229 | 0.509 | 0.283 | 0.993 | 0.806 | 0.841 | 0.443 | 0.416 | 0.208 | 0.58 | 0.406 | 0.62 | 0.171 | 0.234 | 1 | 0.336 | 1 | 0.815 | 0.693 | 0.207 |
| CN(C)CCCOc1ccc(-c2ccc3ncc4c(c3c2)n(C2CCOCC2)c(=O)n4C)cn1 [AZD0156] + O=C(c1cc(Cc2n[nH]c(=O)c3ccccc23)ccc1F)N1CCN(C(=O)C2CC2)CC1 [Olaparib] (first compound max 3 µM, partner max 3 µM) | 0.285 | 0.162 | 0.227 | 0.542 | 0.465 | 0.497 | 0.194 | 0.224 | 0.214 | 0.169 | 0.548 | 0.166 | 0.161 | 0.172 | 0.431 | 0.38 | 0.566 | 0.574 | 0.321 | 0.358 |
| COc1nnc2ccc(N3CCC(c4ccc(OCCN5CCN(C)C(=O)[C@H]5C)cc4)CC3)nn12 [AZD5153] + Cc1c2c(nn1C)CSCc1cc(n(C)n1)CSc1cc(c3ccccc3c1)OCCCc1c(C(=O)O)n(C)c3c-2c(Cl)ccc13 [AZD5991] (first compound max 1 µM, 7x7, partner max 1 µM) | 0.452 | 0.97 | 0.772 | 1 | 0.753 | 0.937 | 0.988 | 0.599 | 0.333 | 0.581 | 0.697 | 0.946 | 0.296 | 0.779 | 0.927 | 0.53 | 1 | 0.889 | 0.911 | 0.568 |
| NC1(C(=O)N[C@@H](CCO)c2ccc(Cl)cc2)CCN(c2ncnc3[nH]ccc23)CC1 [Capivasertib] + C[C@@H]1COCCN1C2=NC(=NC(=C2)C3(CC3)[S@](=N)(=O)C)C4=C5C=CNC5=NC=C4 [AZD6738] (first compound max 10 µM, 7x7, partner max 10 µM) | 0.445 | 0.477 | 0.688 | 0.605 | 0.69 | 0.967 | 0.7 | 0.456 | 0.265 | 0.42 | 0.855 | 0.762 | 0.26 | 0.47 | 1 | 0.72 | 0.94 | 0.865 | 0.575 | 0.501 |
